Results from patent publication US9434711B2 (Janssen Pharmaceutica, NV, priority 2007, dated 2016).

Molecular target: canine TRPM8 (Canis lupus familiaris, UniProt Q1A7N1)
Assay: In Vitro Canine TRPM8 Functional Assay (Ca2+ fluorescence, icilin activation)
Format: cell-based
Conditions: for IC50: HEK293 cells stably expressing canine TRPM8, icilin activation, eight-point dose-response, read-out: IC50; for inhibition at 0.2 µM / % Inh @ 0.2 (μM): compound at 0.2 μM, canine TRPM8, icilin activation; for inhibition at 0.2 µM: read-out: % Inh @ 0.2
Method in brief: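 Eight-point dose-response curves, each point averaging quadruplicate wells, gave EC50 or IC50. Canine TRPM8-expressing HEK293 cells, dye-loaded (Calcium 3), were pre-exposed 5 min to compound, then challenged with icilin at roughly EC80; intracellular Ca2+ read by FLIPR or FDSS fluorescence.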

Sequence of canine TRPM8 (Q1A7N1 1-1104): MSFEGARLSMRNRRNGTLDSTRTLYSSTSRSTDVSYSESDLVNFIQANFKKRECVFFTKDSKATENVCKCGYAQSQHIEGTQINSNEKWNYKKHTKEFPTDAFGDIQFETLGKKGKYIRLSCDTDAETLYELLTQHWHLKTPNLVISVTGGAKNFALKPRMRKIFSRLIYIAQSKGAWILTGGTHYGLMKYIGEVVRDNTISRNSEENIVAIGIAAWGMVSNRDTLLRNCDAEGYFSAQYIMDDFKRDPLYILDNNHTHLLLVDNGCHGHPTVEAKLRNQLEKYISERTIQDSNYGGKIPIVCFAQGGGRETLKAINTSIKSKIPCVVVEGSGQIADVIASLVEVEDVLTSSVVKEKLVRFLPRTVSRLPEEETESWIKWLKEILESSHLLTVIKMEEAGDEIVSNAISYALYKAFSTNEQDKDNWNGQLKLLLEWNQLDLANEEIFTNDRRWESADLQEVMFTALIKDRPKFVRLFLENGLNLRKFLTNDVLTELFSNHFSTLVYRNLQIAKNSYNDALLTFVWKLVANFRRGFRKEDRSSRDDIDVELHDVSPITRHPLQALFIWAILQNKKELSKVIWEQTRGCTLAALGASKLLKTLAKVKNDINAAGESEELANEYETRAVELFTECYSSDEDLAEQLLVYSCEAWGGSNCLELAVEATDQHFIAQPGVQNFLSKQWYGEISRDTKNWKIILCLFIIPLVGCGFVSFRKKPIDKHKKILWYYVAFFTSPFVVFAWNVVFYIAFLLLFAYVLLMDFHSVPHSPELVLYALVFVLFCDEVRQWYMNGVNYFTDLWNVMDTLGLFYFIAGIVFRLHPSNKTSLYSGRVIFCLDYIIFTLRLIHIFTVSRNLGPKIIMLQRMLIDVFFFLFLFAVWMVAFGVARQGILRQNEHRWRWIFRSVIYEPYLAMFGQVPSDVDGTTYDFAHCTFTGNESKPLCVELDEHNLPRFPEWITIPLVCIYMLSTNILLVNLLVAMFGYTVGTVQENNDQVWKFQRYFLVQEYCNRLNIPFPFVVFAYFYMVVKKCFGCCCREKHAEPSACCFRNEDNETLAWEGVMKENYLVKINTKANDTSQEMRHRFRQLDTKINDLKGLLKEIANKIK

| Compound | IC50 [nM] | inhibition at 0.2 µM [%] | % Inh @ 0.2 (μM) [%] |
| --- | --- | --- | --- |
| CC(C)(O)c1c(N(Cc2ccc(F)c(Cl)c2)S(=O)(=O)c2ccc(Br)cc2)sc2ccccc12 [Compound 737, N-(3-Chloro-4-fluorobenzyl)-N-(3-(1-hydroxy-1-methyl-ethyl)-benzo[b]thiophen-2-yl)-4-bromo-benzenesulfonamide] | 29.9 | 101 |  |
| Cc1c(N(CCC2CC2)S(=O)(=O)c2ccc(N(C)C)cc2)sc2ccccc12 [Compound 738, N-(3-Methyl-benzo[b]thiophen-2-yl)-N-(cyclopropyl-ethyl)-4-dimethylamino-benzenesulfonamide] | 8.9 | 102 |  |
| CCN(CC)c1ccc(S(=O)(=O)N(CCC2CC2)c2sc3ccccc3c2C)cc1 [Compound 739, N-(3-Methyl-benzo[b]thiophen-2-yl)-N-(cyclopropyl-ethyl)-4-diethylamino-benzenesulfonamide] | 23.2 | 90 |  |
| Cc1c(N(CCC2CC2)S(=O)(=O)c2ccc(N3CCSCC3)cc2)sc2ccccc12 [Compound 740, N-(3-Methyl-benzo[b]thiophen-2-yl)-N-(cyclopropyl-ethyl)-4-thiomorpholin-4-yl-benzenesulfonamide] |  | 57 |  |
| Cc1c(N(CCC2CC2)S(=O)(=O)c2ccc(N3CCOCC3)cc2)sc2ccccc12 [Compound 741, N-(3-Methyl-benzo[b]thiophen-2-yl)-N-(cyclopropyl-ethyl)-4-morpholino-benzenesulfonamide] | 17.3 | 101 |  |
| Cc1c(N(CCC2CC2)S(=O)(=O)c2ccc(N3CCNCC3)cc2)sc2ccccc12 [Compound 742, N-(3-Methyl-benzo[b]thiophen-2-yl)-N-(cyclopropyl-ethyl)-4-(piperazin-1-yl)-benzenesulfonamide] |  | 66 |  |
| COc1cc(NS(C)(=O)=O)ccc1S(=O)(=O)N(Cc1ccc(F)c(C(F)(F)F)c1)c1cc2ccccc2s1 [Compound 743, N-(Benzo[b]thiophen-2-yl)-N-(4-fluoro-3-trifluoromethyl-benzyl)-4-methanesulfonylamino-2-methoxy-benzenesulfonamide] |  | 32 |  |
| COc1cc(NS(C)(=O)=O)ccc1S(=O)(=O)N(Cc1ccc(F)c(C(F)(F)F)c1)c1sc2ccccc2c1Cl [Compound 744, N-(3-Chloro-benzo[b]thiophen-2-yl)-N-(4-fluoro-3-trifluoromethyl-benzyl)-4-methanesulfonylamino-2-methoxy-benzenesulfonamide] | 57.3 | 99 |  |
| Cc1c(N(CCC2CC2)S(=O)(=O)c2nc3ccccc3n2C)sc2ccccc12 [Compound 745, N-(Cyclopropyl-ethyl)-N-(3-methyl-benzo[b]thiophen-2-yl)-1-methyl-1H-benzimidazole-2-sulfonamide] | 84.9 | 74 |  |
| Cc1c(N(Cc2ccc(OC(F)(F)F)cc2)S(=O)(=O)c2nc3ccccc3n2C)sc2ccccc12 [Compound 746, N-(3-Methyl-benzo[b]thiophen-2-yl)-N-(4-trifluoromethoxy-benzyl)-1-methyl-1H-benzimidazole-2-sulfonamide] |  | 31 |  |
| Cc1c(N(Cc2ccc(F)c(C(F)(F)F)c2)S(=O)(=O)c2ccc3c(c2)CC(N)C3)sc2ccccc12 (stereo not drawn) [Compound 747, 2-Amino-indan-N-(3-methyl-benzo[b]thiophen-2-yl)-N-(4-fluoro-3-trifluoromethyl-benzyl)-N-sulfonamide] |  |  | 48 |
| Cc1c(N(CCCCC(F)(F)F)S(=O)(=O)c2ccc(N(C)C)cc2)sc2ccccc12 [Compound 748, N-(3-Methyl-benzo[b]thiophen-2-yl)-N-(5,5,5-trifluoro-pentyl)-4-dimethylamino-benzenesulfonamide] | 5.3 | 101 |  |
| Cc1c(N(CCCCC(F)(F)F)S(=O)(=O)c2ccc(N3CCOCC3)cc2)sc2ccccc12 [Compound 750, N-(3-Methyl-benzo[b]thiophen-2-yl)-N-(5,5,5-trifluoro-pentyl)-4-morpholino-benzenesulfonamide] | 9.2 | 101 |  |
| Cc1c(N(CCC2CC2)S(=O)(=O)c2ccc(N3CCCCC3)cc2)sc2ccccc12 [Compound 751, N-(3-Methyl-benzo[b]thiophen-2-yl)-N-(cyclopropyl-ethyl)-4-piperidin-1-yl-benzenesulfonamide] |  | 54 |  |
| Cc1c(N(CCCCC(F)(F)F)S(=O)(=O)c2ccc(N3CCCCC3)cc2)sc2ccccc12 [Compound 752, N-(3-Methyl-benzo[b]thiophen-2-yl)-N-(5,5,5-trifluoro-pentyl)-4-piperidine-benzenesulfonamide] |  |  | 65 |
| COC(=O)c1ccc(S(=O)(=O)N(Cc2ccc(OC(F)(F)F)cc2)c2sc3ccccc3c2C2CC2)cc1 [Compound 753, N-(3-Cyclopropyl-benzo[b]thiophen-2-yl)-N-(4-trifluoromethoxy-benzyl)-4-carbomethoxy-benzenesulfonamide] | 27.2 | 69 |  |
| COC(=O)c1ccc(S(=O)(=O)N(Cc2ccc(OC(F)(F)F)cc2)c2sc3ccccc3c2C2CCC2)cc1 [Compound 754, N-(3-Cyclobutyl-benzo[b]thiophen-2-yl)-N-(4-trifluoromethoxy-benzyl)-4-carbomethoxy-benzenesulfonamide] | 16.4 | 82 |  |
| O=C(O)c1ccc(S(=O)(=O)N(Cc2ccc(OC(F)(F)F)cc2)c2sc3ccccc3c2C2CC2)cc1 [Compound 755, N-(3-Cyclopropyl-benzo[b]thiophen-2-yl)-N-(4-trifluoromethoxyl-benzyl)-4-carboxy-benzenesulfonamide] | 0.9 | 101 |  |
| O=C(O)c1ccc(S(=O)(=O)N(Cc2ccc(OC(F)(F)F)cc2)c2sc3ccccc3c2C2CCC2)cc1 [Compound 756, N-(3-Cyclobutyl-benzo[b]thiophen-2-yl)-N-(4-trifluoromethoxy-benzyl)-4-carboxy-benzenesulfonamide] | 1.4 | 101 |  |
| COC(=O)CCCS(=O)(=O)N(Cc1ccc(F)c(C(F)(F)F)c1)c1sc2ccccc2c1C [Compound 757, N-(4-Fluoro-3-trifluoromethyl-benzyl)-N-(3-methyl-benzo[b]thiophen-2-yl)-3-carbomethoxy-propanesulfonamide] | 10.8 | 101 |  |
| Cc1c(N(Cc2ccc(F)c(C(F)(F)F)c2)S(=O)(=O)CCCCO)sc2ccccc12 [Compound 758, N-(4-Fluoro-3-trifluoromethyl-benzyl)-N-(3-methyl-benzo[b]thiophen-2-yl)-4-hydroxy-butanesulfonamide] | 5.1 | 101 |  |
| Cc1c(N(Cc2ccc(F)c(C(F)(F)F)c2)S(=O)(=O)CCCC(C)(C)O)sc2ccccc12 [Compound 759, N-(4-Fluoro-3-trifluoromethyl-benzyl)-N-(3-methyl-benzo[b]thiophen-2-yl)-4-hydroxy-4-methyl-pentane-1-sulfonamide] | 18.3 | 101 |  |
| COC(=O)CCS(=O)(=O)N(Cc1cccc(OC(F)(F)F)c1)c1sc2ccccc2c1C [Compound 760, N-(3-Methyl-benzo[b]thiophen-2-yl)-N-(3-trifluoromethoxy-benzyl)-2-carbomethoxy-ethanesulfonamide] | 45.9 | 94 |  |
